One data set deals with T1, Pgp (ABCB1) ATPase (Homo sapiens, UniProt P08183).
T1 construct: purchased Promega (Madison, WI, USA)
Nature of the data set: Luminescent Pgp-Glo Assay (Pgp ATPase intrinsic activity). In kind it is biochemical. Particulars: 100 µM, 40 min, 37 °C; substrates stimulate basal activity (>100%). On the procedure:
Compounds 11, 12, and 18 were tested at 100 µM on their influence on the ATPase activity of the Pgp pump in the luminescence Pgp-Glo™ Assay, according to previously described methods and protocols. In this assay, luminescence was measured. The Pgp-dependent decreases in luminescence reflect the ATP consumption by Pgp. […] Thus, inhibitors give results <100% of the basal activity, while stimulators/substrates cause a statistically significant increase in the basal activity. […].
The luminescent Pgp-Glo™ Assay System used for determination of the arylideneimidazolone influence on P-glycoprotein activity was purchased from Promega (Madison, WI, USA). The assay was performed in triplicate as described previously. […]. For basal P-gp activity calculation, the membranes were incubated with 100 µM of Na3VO4. The luminescence signal was measured by a microplate reader EnSpire PerkinElmer (Waltham, MA, USA). The statistical significances were calculated using GraphPad Prism 8.0.1 software.

Data set [1] in a line: Cytotoxicity MTT assay, 24 h, PAR cells. Format: cell-based. The note with it: mouse, parental (PAR) L5178 mouse T-cell lymphoma cells, read-out: Cytotoxic effect IC50. On the procedure:
(§1) The cytotoxicity of compounds 7–20 was examined in both aforementioned PAR and MDR mouse T-lymphoma cell lines, using the MTT assay to estimate IC50 values. The selectivity index for cytotoxic action on MDR with respect to PAR cells was calculated (SI, Table 3). […] This range of SI may indicate ABCB1-efflux pump substrate properties for the whole series (7–20), especially distinct in the case of 19 (SI ≤ 0.29), and slightly weaker for 8, 12, 16, and 18.
(§2) L5178 mouse T-cell lymphoma cells (PAR) (ECACC Cat. No. 87111908, obtained from FDA, Silver Spring, MD, USA) were transfected with pHa MDR1/A retrovirus, as previously described by Cornwell et al.. The ABCB1-expressing cell line L5178Y (MDR) was selected by culturing the infected cells with colchicine. The parental L5178 mouse T-cell lymphoma cells and the L5178Y human ABCB1-transfected subline were cultured in McCoy’s 5A medium (Sigma-Aldrich, St Louis, MO, USA) supplemented with 10% heat-inactivated horse serum (Sigma-Aldrich, St Louis, MO, USA), 200 mM L-glutamine (Sigma-Aldrich, St Louis, MO, USA), and a penicillin-streptomycin (Sigma-Aldrich, St Louis, MO, USA) mixture in concentrations of 100 U/L and 10 mg/L, respectively. The cell lines were incubated at 37 °C, in a 5% CO2, 95% air atmosphere.
(§3) Cytotoxicity and antiproliferative assays were performed following the procedure described in the literature. Parental and multidrug-resistant mouse T-lymphoma cells were used to determine the effect of the arylideneimidazolones on the growth of cells. The effects of increasing concentrations of arylideneimidazolones on cell growth were tested in 96-well flat-bottomed microtiter plates. The compounds were diluted in a volume of 100 μL of medium.
(§4) In the case of the mouse T-lymphoma cells, the two-fold serial dilutions were prepared in 100 μL of McCoy’s 5A, horizontally. The parental (PAR) and multidrug-resistant (MDR) mouse T-lymphoma cells were adjusted to a density of 1 × 10^4 cells (for cytotoxic assay) and 6 × 10^3 (for antiproliferative assay) in 100 μL of McCoy’s 5A medium and were added to each well, with the exception of the medium control wells.
(§5) The culture plates were incubated at 37 °C for 24 h (for cytotoxicity assay) and 72 h (for antiproliferative assay); at the end of the incubation period, 20 μL of MTT (thiazolyl blue tetrazolium bromide, Sigma) solution (from a stock solution of 5 mg/mL) were added to each well. After incubation at 37 °C for 4 h, 100 μL of sodium dodecyl sulfate (SDS) (Sigma) solution (10% in 0.01 M HCI) were added to each well and the plates were further incubated at 37 °C overnight. Cell growth was determined by measuring the optical density (OD) at 540/630 nm with a Multiscan EX ELISA reader (Thermo Labsystems, Cheshire, WA, USA).
(§6) Results have been expressed in terms of IC50, defined as the inhibitory dose that reduces the growth of the cells exposed to the tested compounds by 50%, each representing the mean of a minimum of three independent experiments.
(In general: Tetrazolium assays rely on reduction of a dye to a coloured formazan, in cell work by metabolically active cells.)

Data set [2] relates to multidrug-resistant (MDR) mouse T-lymphoma cells. Nature of the data set: Antiproliferative MTT assay, 72 h, MDR cells. In kind it is cell-based. Particulars: for SI (selectivity index), antiproliferative: MDR with respect to PAR cells; for IC50: Mus musculus, MDR cells, 72 h, MTT, read-out: Antiproliferative effect IC50. On the procedure:
(§7) The ABCB1-expressing cell line L5178Y (MDR) was selected by culturing the infected cells with colchicine. The parental L5178 mouse T-cell lymphoma cells and the L5178Y human ABCB1-transfected subline were cultured in McCoy’s 5A medium (Sigma-Aldrich, St Louis, MO, USA) supplemented with 10% heat-inactivated horse serum (Sigma-Aldrich, St Louis, MO, USA), 200 mM L-glutamine (Sigma-Aldrich, St Louis, MO, USA), and a penicillin-streptomycin (Sigma-Aldrich, St Louis, MO, USA) mixture in concentrations of 100 U/L and 10 mg/L, respectively.
as §3, §4
(§8) Cell growth was determined by measuring the optical density (OD) at 540/630 nm with a Multiscan EX ELISA reader (Thermo Labsystems, Cheshire, WA, USA).

Data set [3] is described as follows: Safety in vitro, MTS assay in HEK-293 cells. Format: cell-based, human. The note with it: human, HEK-293 cells, 50 µM, read-out: HEK-293 cell viability. Here is the method: (§9) For safety assay, cells were seeded in 96-well plates at a concentration of 1 × 10^4 cells/well and incubated for 24 h at 37 °C in 5% CO2 atmosphere to reach 50% of confluence. Compounds 11, 12, and 18 were diluted into fresh growth medium and added to the cells at the final concentrations of 0.1–100 μM. The positive control DOX (1 μM) was also added and the cells were incubated for 72 h. The MTS (3-(4,5-dimethylthiazol-2-yl)-5-(3-carboxymethoxyphenyl)-2-(4-sulfophenyl)-2H-tetrazolium) reagent (CellTiter 96® AQueous One Solution Cell Proliferation Assay, Promega, Madison, WI, USA) was added next to each well and incubated for 4 h. The absorbance was measured using a microplate reader (EnSpire, PerkinElmer, Waltham, MA USA) at 490 nm to determine the cells’ viability. The statistical significances were calculated using GraphPad Prism 8.0.1 software.

A further data set relates to HEK-293 cells. Kind of data set: Safety in vitro, MTS assay in HEK-293 cells. The note with it: highest used concentrations (50 and 100 µM), 72 h. Format: cell-based, human. Here is the method:
as §9

Data set [4] has as its system parental (PAR) mouse T-lymphoma cells. Kind of data set: Antiproliferative MTT assay, 72 h, PAR cells. Format: cell-based. Particulars: read-out: Antiproliferative effect IC50. On the procedure: as §7, §3, §4, §8
For the next data set, the target named is ABCB1 efflux pump (Homo sapiens, UniProt P08183). Nature of the data set: Rhodamine 123 accumulation assay (flow cytometry). The note with it: for FAR Quotient (%): FAR of compound related to FAR of VER tested at 20 µM; for FAR (fluorescence activity ratio): rhodamine 123 accumulation, MDR vs PAR mouse T-lymphoma cells. (Flow cytometry measures light scatter and fluorescence of single cells or particles in a stream.)

A short description of data set [5]: Cytotoxicity MTT assay, 24 h, MDR cells. In kind it is cell-based. Particulars: mouse; for IC50 at 24 h: MDR cells, MTT, read-out: Cytotoxic effect IC50; for selectivity ratio at 24 h: cytotoxic action on MDR with respect to PAR cells, read-out: SI (selectivity index), cytotoxicity. Here is the method: as §1, §2, §3, §4, §5, §6
[6] abbreviates: concentration 20 µM, VER values for assay group 1 / 2.

Where “and” joins values, the source holds several entries; their conditions need not be identical. Identical values can stand only once.

Chain of ABCB1 efflux pump (P08183 whole entry): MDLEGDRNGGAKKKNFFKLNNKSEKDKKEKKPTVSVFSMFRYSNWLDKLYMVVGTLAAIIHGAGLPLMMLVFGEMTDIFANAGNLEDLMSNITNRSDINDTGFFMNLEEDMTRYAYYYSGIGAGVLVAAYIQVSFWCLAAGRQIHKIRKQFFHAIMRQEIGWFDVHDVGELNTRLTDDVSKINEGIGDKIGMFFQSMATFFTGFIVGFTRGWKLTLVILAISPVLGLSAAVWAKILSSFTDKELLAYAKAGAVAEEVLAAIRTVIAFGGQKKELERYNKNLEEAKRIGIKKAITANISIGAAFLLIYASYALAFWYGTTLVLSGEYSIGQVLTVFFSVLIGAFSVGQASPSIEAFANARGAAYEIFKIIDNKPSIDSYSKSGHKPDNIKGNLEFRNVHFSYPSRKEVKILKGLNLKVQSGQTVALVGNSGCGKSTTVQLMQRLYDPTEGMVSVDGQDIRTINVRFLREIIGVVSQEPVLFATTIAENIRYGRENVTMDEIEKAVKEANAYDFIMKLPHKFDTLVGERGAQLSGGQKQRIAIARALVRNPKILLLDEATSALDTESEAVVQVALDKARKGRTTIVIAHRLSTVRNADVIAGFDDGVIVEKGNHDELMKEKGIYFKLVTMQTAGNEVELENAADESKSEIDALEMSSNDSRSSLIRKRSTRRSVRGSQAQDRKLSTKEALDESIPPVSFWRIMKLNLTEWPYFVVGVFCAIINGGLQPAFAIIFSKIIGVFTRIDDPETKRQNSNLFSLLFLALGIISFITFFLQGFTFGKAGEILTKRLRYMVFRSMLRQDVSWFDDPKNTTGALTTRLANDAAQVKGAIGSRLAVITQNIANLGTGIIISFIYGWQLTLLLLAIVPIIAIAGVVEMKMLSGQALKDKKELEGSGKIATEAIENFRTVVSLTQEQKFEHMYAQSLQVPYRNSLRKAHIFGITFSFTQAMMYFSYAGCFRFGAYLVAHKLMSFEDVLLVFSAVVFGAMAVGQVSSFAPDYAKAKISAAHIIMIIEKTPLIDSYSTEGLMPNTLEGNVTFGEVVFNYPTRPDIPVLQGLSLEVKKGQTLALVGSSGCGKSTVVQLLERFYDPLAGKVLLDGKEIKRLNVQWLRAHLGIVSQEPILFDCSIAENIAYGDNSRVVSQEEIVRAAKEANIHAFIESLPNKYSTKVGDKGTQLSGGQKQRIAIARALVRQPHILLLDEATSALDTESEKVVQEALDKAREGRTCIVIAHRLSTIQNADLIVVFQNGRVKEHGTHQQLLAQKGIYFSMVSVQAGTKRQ
T1 sequence (P08183 whole entry): as above
Experimental for ABCB1 efflux pump: The study was carried out on mouse T-lymphoma cell lines, including the parental sensitive line (PAR) and its multidrug-resistant subline (MDR) transfected with the human MDR1 (ABCB1) gene. […] The fluorescence activity ratio (FAR), as a measure of the efflux pump modulating properties, was calculated based on the fluorescence data obtained [23, 24, 25]. […] The parental L5178 mouse T-cell lymphoma cells and the L5178Y human ABCB1-transfected subline were cultured in McCoy’s 5A medium (Sigma-Aldrich, St Louis, MO, USA) supplemented with 10% heat-inactivated horse serum (Sigma-Aldrich, St Louis, MO, USA), 200 mM L-glutamine (Sigma-Aldrich, St Louis, MO, USA), and a penicillin-streptomycin (Sigma-Aldrich, St Louis, MO, USA) mixture in concentrations of 100 U/L and 10 mg/L, respectively.
The potency of the tested compounds as inhibitors of the ABCB1 efflux pump was determined using a fluorescence-based detection system, described previously in the literature [23, 26]. […] The parental (PAR) and multidrug-resistant (MDR) mouse T-lymphoma cells were adjusted to a density of 2 × 10^6/mL, re-suspended in serum-free McCoy’s 5A medium, and distributed in 0.5 mL aliquots into Eppendorf centrifuge tubes. […] The fluorescence intensity of the cell population was measured with a Partec CyFlow flow cytometer (Partec, Munster, Germany). […] The mean fluorescence intensity (%) was calculated for the treated MDR and PAR mouse T-lymphoma cells as compared to the untreated cells.

Regarding `Cl.O=C1N=C(N2CCC(N3CCOCC3)CC2)N/C1=C\c1ccc(Oc2ccccc2)cc1` [Compound 11, (Z)-5-(4-Phenoxybenzylidene)-2-(4-morpholinopiperidin-1-yl)-imidazol-4(5H)-one hydrochloride], the “effect on ABCB1 basal activity (Pgp ATPase)” value at Pgp (ABCB1) ATPase is given as “increase in basal activity”. The half-maximal inhibitory concentration (IC50) (commonly the concentration at which inhibition is half-maximal) at 24 h in data set [1] worked out at 39.1 µM; in data set [5] it was 45.5 µM. Also, the “SI (selectivity index), antiproliferative” value (from here on “SI (selectivity index)”) in data set [2] came out at 0.97. Besides, the values for the IC50 in data set [2] and in [4] were 25.6 µM and 24.8 µM, respectively. Moreover, the viability (commonly a per cent measure of how many cells are alive, often set against a control) at 72 h, 50 µM in [3] was 84.2%. The “effect on HEK-293 cell viability” value in the data set on HEK-293 cells is reported as “significantly decreased HEK-293 cell viability”. The “efflux pump inhibiting effect relative to verapamil” value on ABCB1 efflux pump (20 µM, same concentration as verapamil) is ~1.5 fold and 1.38–1.46 fold. The figures for the “FAR Quotient (%)” value at ABCB1 efflux pump (concentration 2 µM) and at ABCB1 efflux pump (concentration 20 µM) were 7.51% and 146.22%, respectively. Further, the “FAR (fluorescence activity ratio)” value at ABCB1 efflux pump (concentration 2 µM) amounted to 1.203; at ABCB1 efflux pump (setting [6]), 23.419. Further, the selectivity ratio at 24 h in [5] is 0.86.

For the molecule `Cl.O=C1N=C(N2CCC(N3CCOCC3)CC2)N/C1=C\c1ccc2c(c1)Cc1ccccc1-2` [Compound 12, (Z)-5-((9H-Fluoren-2-yl)methylene)-2-(4-morpholinopiperidin-1-yl)-imidazol-4(5H)-one hydrochloride], the melting point – broadly, the temperature of the solid-liquid transition – was in the range of 274 to 276 °C. Moreover, the “effect on ABCB1 basal activity (Pgp ATPase)” value on Pgp (ABCB1) ATPase is on record as “increased the basal activity”. In addition, in [1], the IC50 at 24 h stood at 15.8 µM. In data set [2], the “SI (selectivity index)” value is 0.78 and the IC50 was found to be 16.2 µM. The IC50 in data set [4] was 12.7 µM. At ABCB1 efflux pump (concentration 2 µM), the “FAR Quotient (%)” value is 8.88% and the “FAR (fluorescence activity ratio)” value came out at 1.161. Also, the “FAR Quotient (%)” value on ABCB1 efflux pump (concentration 20 µM) is 46.23%. Besides, the “FAR (fluorescence activity ratio)” value at ABCB1 efflux pump (setting [6]) is on record as 6.045. In data set [5], the IC50 at 24 h is 30.8 µM and the selectivity ratio at 24 h was 0.51.

For the molecule `Cl.NC1=N/C(=C\c2ccc(-c3ccccc3)cc2)C(=O)N1CCCN1CCOCC1` [Compound 15, (Z)-5-(Biphen-4-ylmethylene)-2-amino-3-(3-morpholinopropyl)-imidazol-4(5H)-one hydrochloride], the melting point lay in the range of 248 to 252 °C. The IC50 at 24 h in data set [1] was 17.5 µM. Also, in data set [2], the “SI (selectivity index)” value was determined as 0.75 and the IC50 was 13.6 µM. Moreover, the IC50 in data set [4] is 10.3 µM. Besides, at ABCB1 efflux pump (concentration 2 µM), the “FAR Quotient (%)” value is listed as 6.78% and the “FAR (fluorescence activity ratio)” value came to 0.887. The “FAR Quotient (%)” value at ABCB1 efflux pump (concentration 20 µM) is reported as 16.98%. The “FAR (fluorescence activity ratio)” value at ABCB1 efflux pump (setting [6]) worked out at 2.221. Further, in data set [5], the IC50 at 24 h came out at 20.8 µM and the selectivity ratio at 24 h is 0.84.

Molecule `Cl.NC1=N/C(=C\c2ccc(Oc3ccccc3)cc2)C(=O)N1CCCN1CCOCC1` [Compound 17, (Z)-5-(4-Phenoxybenzylidene)-2-amino-3-(3-morpholinopropyl)-imidazol-4(5H)-one hydrochloride] returned a melting point of 210 to 212 °C. In addition, in data set [1], the IC50 at 24 h came to 21.5 µM. For the same molecule, in data set [2], the “SI (selectivity index)” value turned out to be 0.85 and the IC50 came to 14.2 µM. In [4], the IC50 amounted to 12.2 µM. Moreover, at ABCB1 efflux pump (concentration 2 µM), the “FAR Quotient (%)” value is recorded as 5.80% and the “FAR (fluorescence activity ratio)” value is 0.929. Moreover, the “FAR Quotient (%)” value at ABCB1 efflux pump (concentration 20 µM) is 14.37%. Moreover, on ABCB1 efflux pump (setting [6]), the “FAR (fluorescence activity ratio)” value turned out to be 2.301. In addition, in data set [5], the IC50 at 24 h was found to be 23.4 µM and the selectivity ratio at 24 h came to 0.92.

For `Cl.NC1=N/C(=C\c2cc3ccccc3c3ccccc23)C(=O)N1CCCN1CCOCC1` [Compound 20, (Z)-5-(Phenanthren-9-ylmethylene)-2-amino-3-(3-morpholinopropyl)-imidazol-4(5H)-one hydrochloride], the melting point was 238 to 240 °C. Also, the IC50 at 24 h in data set [1] is 19.6 µM. In data set [2], the “SI (selectivity index)” value is given as 0.85 and the IC50 is 17.3 µM. In data set [4], the IC50 amounted to 14.8 µM. Moreover, at ABCB1 efflux pump (concentration 2 µM), the “FAR Quotient (%)” value turned out to be 5.59% and the “FAR (fluorescence activity ratio)” value worked out at 0.896. Moreover, the “FAR Quotient (%)” value at ABCB1 efflux pump (concentration 20 µM) stood at 7.72%. Moreover, the “FAR (fluorescence activity ratio)” value at ABCB1 efflux pump (setting [6]) stood at 1.237. In addition, in [5], the IC50 at 24 h came out at 24.9 µM and the selectivity ratio at 24 h turned out to be 0.79.

(Values after PMC7249047, “Search for ABCB1 Modulators Among 2-Amine-5-Arylideneimidazolones as a New Perspective to Overcome Cancer Multidrug Resistance” (Molecules, 2020).)
